Assay results published in patent publication US12202844B2, “MAP4K1 inhibitors” (Blueprint Medicines Corporation, priority 2021, dated 2025).
Like-named read-outs stand apart in the source and are kept apart here.

Tests used:
[1] = system: Primary T Cell (expanded CD3+ T cells); assay: T cell enhancement of cytokines: IL2 measurement (HTRF) in stimulated expanded CD3+ T cells; format: cell-based, human; settings: plate-bound anti-CD3 and soluble anti-CD28, 24 h, IL2 by HTRF, read-out: IL-2 Primary T Cell EC50
Method: T cells are isolated from whole blood of healthy donors by immunomagnetic negative selection following manufacture's protocol (StemCell Technologies, human T cell isolation kit). Purity of isolated cells is assessed by flow cytometry and yields 95-98% CD3^+ T cells. For expansion of T cells, 1×10^6 cells/well are plated in serum free cell expansion media (ThermoFisher) containing 30 U of recombinant human IL2 (R&D) and stimulated with 25 ul of CD3/CD28 beads (Invitrogen) in 24 well plates for 3-4 days. T cells are then expanded in 175 cm flasks and maintained at a cell density of 1 to 2.5×10^6 cells/ml days by addition of ⅔ of fresh media every 2-3 days. After 10-14 days, cells are frozen in BamBanker freezing media (Thermo) and stored in liquid nitrogen.
For IL2 measurement, expanded CD3^+ T cells are dispensed at 100K cells/well (cultured in X-VIVO 10 Serum-free media) and are stimulated with plate-bound anti-CD3 and soluble anti-CD28 in the presence of vehicle or compound of the disclosure at various concentrations for 24 h. As outlined in the manufacturer's protocol (Cisbio), 16 μL of conditioned media is transferred to a white 384-well low volume plate. Following a 24 h incubation with the anti-IL2 antibodies, the homogenous time resolved fluorescence (HTRF) is measured.

MAP4K1 (HPK1) = target: T1, MAP4K1 (HPK1) (Homo sapiens, UniProt Q92918); assay: Inhibition of MAP4K1 biochemical enzymatic activity (EZReader 2 electrophoretic mobility shift); settings: HPK1 (Invitrogen), S6K2tide 1.5 μM, 120 min; ATP 26 μM or 1000 μM (not given)
T1 construct: purchased Invitrogen
T1 sequence (Q92918 whole entry): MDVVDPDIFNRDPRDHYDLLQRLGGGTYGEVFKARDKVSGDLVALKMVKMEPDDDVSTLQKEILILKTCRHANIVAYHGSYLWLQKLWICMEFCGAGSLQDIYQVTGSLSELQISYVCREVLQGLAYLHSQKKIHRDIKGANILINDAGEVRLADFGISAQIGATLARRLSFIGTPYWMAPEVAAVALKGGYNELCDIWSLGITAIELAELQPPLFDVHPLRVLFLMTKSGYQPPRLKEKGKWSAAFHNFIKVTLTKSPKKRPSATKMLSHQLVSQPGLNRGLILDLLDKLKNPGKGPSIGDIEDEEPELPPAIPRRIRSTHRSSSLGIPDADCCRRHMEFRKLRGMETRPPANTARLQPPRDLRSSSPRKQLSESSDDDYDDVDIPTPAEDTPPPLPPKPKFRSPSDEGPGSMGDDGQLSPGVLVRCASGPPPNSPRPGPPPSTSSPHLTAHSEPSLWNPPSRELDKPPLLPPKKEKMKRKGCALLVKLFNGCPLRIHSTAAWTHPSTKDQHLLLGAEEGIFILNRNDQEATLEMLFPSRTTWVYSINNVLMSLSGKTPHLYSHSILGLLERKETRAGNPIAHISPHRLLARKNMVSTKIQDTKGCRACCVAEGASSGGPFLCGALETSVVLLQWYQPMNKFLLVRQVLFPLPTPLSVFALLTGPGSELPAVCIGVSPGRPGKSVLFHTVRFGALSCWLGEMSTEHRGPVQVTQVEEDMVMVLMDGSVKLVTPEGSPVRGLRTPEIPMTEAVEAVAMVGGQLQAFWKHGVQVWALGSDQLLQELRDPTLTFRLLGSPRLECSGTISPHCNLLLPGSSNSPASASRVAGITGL
Source text: MAP4K1 (HPK1) and relevant off-target enzymatic activity was monitored using the Perkin Elmer electrophoretic mobility shift technology platform—the EZReader 2. […] Within the linear, steady-state phase of the kinase enzymatic reaction, the mixed pool of phosphorylated (product) and non-phosphorylated (substrate) peptides was passed through the microfluidic system of the PerkinElmer EZ Reader 2, under an applied electric potential difference. The presence of the phosphate group on the product peptide provided a difference in mass and charge between that of the substrate peptide, resulting in a separation of the substrate and product pools in the sample (Perrin et al. 2010). As the product and substrate peptide mixture passes the lasers within the instrument, these pools are detected (λex=488 nm, λem=568 nm) and resolved as separate peaks. The ratio between these peaks reflects the activity of the compound at that concentration, in that well, under those conditions.
Inhibitors were dissolved in 100% DMSO at a stock concentration of 10 mM. A 100×, 10-point, 4-fold serial dilution of each inhibitor was created in 100% DMSO either manually or on a Hamilton STAR liquid handler, starting at a relevant concentration, usually 1 mM. A volume of 0.130 μL of each concentration was transferred to the relevant wells of a 384-well plate (Greiner 781 201) in duplicate using a TTPLabtech Mosquito nano-litre dispenser. Using a Multidrop Combi, the remaining constituents of the kinase reaction were added to the 130 nL of dosed compound as follows (see table below for final reaction details):
Enzyme activity assays at the ^APPKM for ATP or 1 mM ATP: In each well of a 384-well plate, 0.1-15 nM of untreated enzyme was incubated in a total of 13 μL of buffer (100 mM HEPES pH 7.5, 0.015% Brij 35, 10 mM MgCl2, 1 mM DTT) with 1.5 μM fluorescent peptid and 20-1000 μM ATP, at 25° C., for 60-180 minutes in the presence or absence of a dosed concentration series of compound (1% DMSO final concentration). The kinase reactions were stopped by the addition of 70 μl of Stop buffer (100 mM HEPES pH 7.5, 0.015% Brij 35, 35 mM EDTA and 0.2% of Coating Reagent 3 (Caliper Lifesciences)). The plates were read on a Caliper EZReader 2 as described above.

Structure (SMILES) | EC50 ([1]; Homo sapiens, T-cell, 24 h) [nM] | IC50 (MAP4K1 (HPK1)) [nM] | EC50 [1] [nM]
C[C@@H]1COC(=O)c2ccc(Nc3cc4c(C(C)(C)N)cnc(O[C@H]5C[C@@H](S(C)(=O)=O)C5)c4cn3)nc21 (single isomer, unassigned) [Compound 6] | 7 | 0.18 | –
C[C@@H]1COC(=O)c2ccc(Nc3cc4c(C(C)(C)N)cnc(O[C@H]5C[C@@H](S(=O)(=O)C6CC6)C5)c4cn3)nc21 (single isomer, unassigned) [Compound 26] | 17 | 0.26 | –
C[C@@H]1c2nc(Nc3cc4c(C(N)C5CC5)cnc(O[C@H]5C[C@@H](S(C)(=O)=O)C5)c4cn3)ccc2C(=O)OC1(C)C (single isomer, unassigned) [Compound 62, (R)-2-((5-((S or R)-Amino(cyclopropyl)methyl)-8-(cis-3-(methylsulfonyl)cyclobutoxy)-2,7-naphthyridin-3-yl)amino)-7,7,8-trimethyl-7,8-dihydro-5H-pyrano[4,3-b]pyridin-5-one] | 76 | 0.33 | –
C[C@H]1[C@H](Oc2ncc(C(C)(C)N)c3cc(Nc4ccc5c(n4)[C@@H](C)C(C)(C)OC5=O)ncc23)C[C@@H]1S(C)(=O)=O (single isomer, unassigned) [Compound 69] | 15 | 0.1 | –
CC[C@@H](N)c1cnc(O[C@H]2C[C@@H](S(=O)(=O)CC)C2)c2cnc(Nc3ccc4c(n3)[C@@H](C)C(C)(C)OC4=O)cc12 (single isomer, unassigned) [Compound 74] | 51 | 0.33 | –
COC[C@@](C)(N)c1cnc(OCCCS(C)(=O)=O)c2cnc(Nc3ccc4c(n3)[C@@H](C)[C@H](C)OC4=O)cc12 [Compound 57] | – | 0.53 | –
CC(C)(N)c1cnc(O[C@H]2C[C@@H](S(C)(=O)=O)C2)c2cnc(Nc3ccc4c(n3)C3(CC3)C(C)(C)OC4=O)cc12 [Compound 59] | – | 0.15 | –
C[C@@H]1OC(=O)c2ccc(Nc3cc4c(C(C)(C)N)cnc(O[C@H]5C[C@@H](S(=O)(=O)C6CC6)C5)c4cn3)nc2[C@H]1C [Compound 61] | – | 0.15 | –
CC[C@@](C)(N)c1cnc(O[C@H]2C[C@H](CS(C)(=O)=O)C2)c2cnc(Nc3ccc4c(n3)[C@@H](C)[C@H](C)OC4=O)cc12 [Compound 72] | – | 0.1 | –
CC[C@@](C)(N)c1cnc(O[C@H]2C[C@@H](CS(C)(=O)=O)C2)c2cnc(Nc3ccc4c(n3)[C@@H](C)[C@H](C)OC4=O)cc12 [Compound 73] | – | 0.24 | –
C[C@@H]1OC(=O)c2ccc(Nc3cc4c(C(C)(C)N)cnc(O[C@H]5C[C@H](S(=O)(=O)N(C)C)C5)c4cn3)nc2[C@H]1C [Compound 82] | – | 0.35 | –
CCS(=O)(=O)[C@H](C)C[C@@H](C)Oc1ncc(C(C)(C)N)c2cc(Nc3ccc4c(n3)[C@@H](C)[C@H](C)OC4=O)ncc12 [Compound 89] | – | 0.24 | –
CC(C)S(=O)(=O)[C@H]1C[C@@H](Oc2ncc(C(C)(C)N)c3cc(Nc4ccc5c(n4)[C@@H](C)C(C)(C)OC5=O)ncc23)C1 [Compound 116] | – | 0.09 | –
C[C@@H]1c2nc(Nc3cc4c(C(C)(C)N)cnc(O[C@H]5C[C@H](S(=O)(=O)N(C)C)C5)c4cn3)ccc2C(=O)OC1(C)C [Compound 119] | – | 0.22 | –
COC[C@@](C)(N)c1cnc(O[C@H]2C[C@H](CS(C)(=O)=O)C2)c2cnc(Nc3ccc4c(n3)[C@@H](C)[C@H](C)OC4=O)cc12 [Compound 120] | – | 0.52 | –
COC[C@@](C)(N)c1cnc(O[C@H]2C[C@@H](CS(C)(=O)=O)C2)c2cnc(Nc3ccc4c(n3)[C@@H](C)[C@H](C)OC4=O)cc12 [Compound 121] | – | 0.59 | –
COC[C@@](C)(N)c1cnc(O[C@H](C)C[C@@H](C)S(C)(=O)=O)c2cnc(Nc3ccc4c(n3)[C@@H](C)[C@H](C)OC4=O)cc12 [Compound 134] | – | 0.48 | –
COC[C@@](C)(N)c1cnc(OCCCS(C)(=O)=O)c2cnc(Nc3ccc4c(n3)[C@@H](C)C(C)(C)OC4=O)cc12 [Compound 135] | – | 0.45 | –

The next lines start with the values.

EC50 ([1]; Homo sapiens, T-cell, 24 h) [nM] | IC50 (MAP4K1 (HPK1)) [nM] | EC50 [1] [nM] | Structure (SMILES)
44 | 0.31 | – | CC[C@@](C)(N)c1cnc(O[C@H](C)CCS(C)(=O)=O)c2cnc(Nc3ccc4c(n3)[C@H](C)COC4=O)cc12 (single isomer, unassigned) [Compound 16]
43 | 0.33 | – | C[C@@H]1OC(=O)c2ccc(Nc3cc4c(C(C)(C)N)cnc(O[C@@H](C)CCS(C)(=O)=O)c4cn3)nc2[C@H]1C (single isomer, unassigned) [Compound 18]
24 | 0.29 | – | C[C@H](CCS(C)(=O)=O)Oc1ncc(C(C)(C)N)c2cc(Nc3ccc4c(n3)C3(CC3)[C@@H](C)OC4=O)ncc12 (single isomer, unassigned) [Compound 29]
53 | 0.38 | – | CC[C@@](C)(N)c1cnc(O[C@H](C)C[C@@H](C)S(C)(=O)=O)c2cnc(Nc3ccc4c(n3)[C@H](C)COC4=O)cc12 (single isomer, unassigned) [Compound 47]
– | 0.59 | 55 | CC[C@@](C)(N)c1cnc(O[C@H](C)C[C@@H](C)S(C)(=O)=O)c2cnc(Nc3ccc4c(n3)[C@H](C)COC4=O)cc12 (single isomer, unassigned) [Compound 48]
34 | 0.36 | – | C[C@H](CCS(C)(=O)=O)Oc1ncc(C(C)(C)N)c2cc(Nc3ccc4c(n3)[C@@H](C)C(C)(C)OC4=O)ncc12 (single isomer, unassigned) [Compound 55]
11 | 0.2 | – | C[C@H](C[C@@H](C)S(C)(=O)=O)Oc1ncc(C(C)(C)N)c2cc(Nc3ccc4c(n3)C3(CC3)[C@@H](C)OC4=O)ncc12 (single isomer, unassigned) [Compound 65]
21 | 0.24 | – | CC[C@@](C)(N)c1cnc(O[C@H](C)CCS(C)(=O)=O)c2cnc(Nc3ccc4c(n3)C3(CC3)[C@@H](C)OC4=O)cc12 (single isomer, unassigned) [Compound 66]
– | 0.56 | – | CC[C@@](C)(N)c1cnc(O[C@H](C)CCS(C)(=O)=O)c2cnc(Nc3ccc4c(n3)C(C)(C)COC4=O)cc12 [Compound 50]
– | 0.15 | – | CC[C@@](C)(N)c1cnc(O[C@H]2C[C@@H](S(C)(=O)=O)C2)c2cnc(Nc3ccc4c(n3)C3(CC3)C(C)(C)OC4=O)cc12 [Compound 100]
– | 0.55 | – | C[C@H](C[C@@H](C)S(C)(=O)=O)Oc1ncc(C(C)(C)N)c2cc(Nc3ccc4c(n3)C3(CC3)C(C)(C)OC4=O)ncc12 [Compound 103]
– | 0.14 | – | CC[C@@](C)(N)c1cnc(O[C@H]2C[C@H](CS(C)(=O)=O)C2)c2cnc(Nc3ccc4c(n3)[C@@H](C)C(C)(C)OC4=O)cc12 [Compound 113]
– | 0.17 | – | CC[C@@](C)(N)c1cnc(O[C@H]2C[C@@H](CS(C)(=O)=O)C2)c2cnc(Nc3ccc4c(n3)[C@@H](C)C(C)(C)OC4=O)cc12 [Compound 114]
– | 1.41 | – | CC[C@@](C)(N)c1cnc(O[C@@H](C)CCS(C)(=O)=O)c2cnc(Nc3ccc4c(n3)C3(CC3)C(C)(C)OC4=O)cc12 [Compound 146]
– | 1.48 | – | COC[C@@](C)(N)c1cnc(O[C@H](C)C[C@@H](C)S(C)(=O)=O)c2cnc(Nc3ccc4c(n3)C3(CC3)C(C)(C)OC4=O)cc12 [Compound 164]
– | 1.1 | – | CC[C@@](C)(N)c1cnc(O[C@@H](C)CCS(C)(=O)=O)c2cnc(Nc3ccc4c(n3)C(C)(C)[C@@H](C)OC4=O)cc12 [Compound 177]
– | 0.55 | – | CC[C@@](C)(N)c1cnc(O[C@H](C)CCS(C)(=O)=O)c2cnc(Nc3ccc4c(n3)C(C)(C)[C@@H](C)OC4=O)cc12 [Compound 178]
